Consider 1 compound from publication PMC11647725, “Discovery of 4-(5-Membered)Heteroarylether-6-methylpicolinamide Negative Allosteric Modulators of Metabotropic Glutamate Receptor Subtype 5” (ACS Medicinal Chemistry Letters, 2024).

Data set [1] is described as follows: Intrinsic clearance in human liver microsomes. It is filed as in vitro ADME. The protocol:
Mean values for each species were calculated from 3 replicates.
Intrinsic Clearance in Rat and Human Liver Microsomes
The in vitro intrinsic clearance (CL int) was investigated in commercially obtained hepatic microsomes from rat and human donors using the substrate depletion (i.e., loss-of-parent vs. time, or t 1/2 method) approach with analyte detection via liquid chromatography-tandem mass spectrometry (LC-MS/MS). For each species, mean %parent remaining values at each time point were calculated from replicates raw data (analyte:IS peak area ratios) and used to determine in vitro t 1/2 and CLint.
Experiments were carried out using a robot-assisted (TECAN model Evo 200). Compound was incubated (1 µM final concentration) in buffer (100 mM potassium phosphate pH 7.4 with 3 mM MgCl2) containing hepatic microsomes (0.5 mg/mL final concentration) from multiple species, discretely, at 37 °C under constant orbital shaking. After 5 minutes (pre-incubation), reactions were initiated by addition of nicotinamide adenine dinucleotide phosphate (NADPH, 1 mM final concentration). At selected time intervals (0, 3, 7, 15, 25, and 45 minutes) post-addition of NADPH, aliquots (50 µL) were taken and placed into a 96-shallow-well plate containing ice cold acetonitrile (150 µL) with carbamazepine (IS, 50 nM). The plates were then centrifuged (3000 rcf at 4 °C) for 10 minutes. The supernatants were transferred to a new 96-shallow-well daughter plate and diluted (1:1 v/v) with water (Milli-Q filtered). The plates were then sealed in preparation for LC-MS/MS analysis (see below).
Raw LC-MS/MS peak area data generated from the assay samples were used to construct natural log-transformed %parent remaining vs. time plots (using t = 0 minute post-NADPH addition sample data as starting point set to 100%). In vitro compound half-life (t 1/2) values were obtained using the following […]
k is the slope from linear regression analysis of the natural log-transformed data (using means from Where all replicates at each time point). Resulting t 1/2 values were then used to calculate hepatic CLint values according to the following equation and with the use of species-specific scale-up factors for liver weight (grams) per total body weight (kg): […]
CLint = in vitro t1/2 x 0.5 mg microsomes x 1 gram liver x kg body wt aScale-up factors used are 45 (rat) and 20 (human).4
Predicted hepatic clearance (CLhep) was calculated using the following equation: […]
Qh represents hepatic blood flow (mL/min/kg): 21 for human, 70 for rat, and 90 for mouse.
Prepared samples were injected (10 µL each) onto an AB Sciex Triple Quad 4500 mass spectrometer system with an Agilent 1260 Infinity II pump and autosampler. Mass spectrometer conditions are described in Table S1. Quantitation of compounds was performed via AB Sciex Multiquant software using the raw analyte:IS peak area ratios. The typical detection range was 0.5 ng/mL to ≥ 5,000 ng/mL utilizing a quadratic equation regression with 1/x2 weighting.
Correction for dilution of all brain samples (in extraction buffer and subsequently in blank plasma, as previously described) was performed post-quantitation. The corrections for dilution in extraction buffer employed correction factors specific to each brain weight (not shown).
Background: Microsomes from liver hold many membrane-bound enzymes, among them those of drug oxidation.

The nature of data set [2]: Hepatocyte metabolism study. It is filed as in vitro ADME. To be noted: dog hepatocytes, more so than any other species tested. The text has this: (§1) Nonetheless, as a non-aryl/heterobiaryl acetylene mGlu5 NAM with an encouraging in vivo rodent PK profile, we wished to further assess VU6043653 as a novel chemotype. Therefore, we compared metabolites in multiple species to better understand species differences in clearance and metabolism. […] Consistent with the high plasma clearance observed in dogs, high turnover was observed more so in dog hepatocytes than any other species tested (see the Supporting Information for additional details and results). To further evaluate our novel chemotype, the off-target and safety/toxicity profiles for this compound were further investigated.
Table S3. Tentatively Identified Metabolites of VU6043653 in Rat, Dog, Monkey, and Human Hepatocytes (10 μM incubation for 0 and 4 hours). […]
metabolite observed with rat, dog, monkey, and human hepatocytes was M1. Overall, the major pathways for VU6043653 appear to be oxidation, demethylation, and glucuronidation.
(1 picture or pasted object on this page, not shown here)

For a further data set, the target named is Opiate κ (OP2, KOP) (Homo sapiens, UniProt P41145). Briefly: Lead Profiling Screen, Eurofins Panlabs. It is filed as binding. The settings on record: hum, read-out: % inh at 10 μM.
For another data set, the target named is Neuropeptide Y Y1 (Homo sapiens, UniProt P25929). Briefly: Lead Profiling Screen, Eurofins Panlabs. It is filed as binding. To be noted: Neuropeptide Y Y1, hum, read-out: % inh at 10 μM.
The target in data set [3] is Leukotriene, Cysteinyl CysLT1 (Homo sapiens, UniProt Q9Y271). The experiment in a line: Lead Profiling Screen, Eurofins Panlabs. It is filed as binding. The settings on record: Cysteinyl CysLT1, hum, read-out: % inh at 10 μM.
The target of a further data set is Tachykinin NK1 (Homo sapiens, UniProt P25103). The experiment in a line: Lead Profiling Screen, Eurofins Panlabs. It is filed as binding. The settings on record: Tachykinin NK1, hum, read-out: % inh at 10 μM.
The target of the next data set is Melatonin MT1 (Homo sapiens, UniProt P48039). The experiment in a line: Lead Profiling Screen, Eurofins Panlabs. It is filed as binding. The settings on record: Melatonin MT1, hum, read-out: % inh at 10 μM.
Another data set concerns the target hERG potassium channel (Homo sapiens, UniProt Q12809). The experiment in a line: Lead Profiling Screen, Eurofins Panlabs. It is filed as binding. To be noted: hum, read-out: % inh at 10 μM.
For a further data set, the target named is Muscarinic M1 (Homo sapiens, UniProt P11229). Briefly: Lead Profiling Screen, Eurofins Panlabs. To be noted: Muscarinic M1, hum, read-out: % inh at 10 μM. It is filed as binding.
For a further data set, the target named is Opiate δ1 (OP1, DOP) (Homo sapiens, UniProt P41143). Briefly: Lead Profiling Screen, Eurofins Panlabs. It is filed as binding. To be noted: hum, read-out: % inh at 10 μM.
The next data set has as its target Glutamate, NMDA, Glycine (Rattus norvegicus, UniProt P35439). The experiment in a line: Lead Profiling Screen, Eurofins Panlabs. It is filed as binding. To be noted: read-out: % inh at 10 μM.
Excerpt: as §1
(§2) Table S2. Lead Profiling Screen – Eurofins Panlabs for VU6043653.
(§3) Assay Name Species % inh at 10 μM […]

The test system of data set [4] is Calcium Channel L-Type, Benzothiazepine. The experiment in a line: Lead Profiling Screen, Eurofins Panlabs. It is filed as binding. To be noted: rat.
Excerpt: as §1, §2, §3

The next data set has as its system Glutamate, Kainate. Briefly: Lead Profiling Screen, Eurofins Panlabs. It is filed as binding. To be noted: rat.
Excerpt: as §1, §2, §3

The subject of data set [5] is GABAA, Flunitrazepam, Central. Briefly: Lead Profiling Screen, Eurofins Panlabs. It is filed as binding. To be noted: rat.
Excerpt: as §1, §2, §3

Another data set addresses Adenosine A2A (Homo sapiens, UniProt P29274). Briefly: Lead Profiling Screen, Eurofins Panlabs. The settings on record: hum, read-out: % inh at 10 μM. It is filed as binding.
Excerpt: as §1, §2

The next data set concerns Phorbol Ester. Briefly: Lead Profiling Screen, Eurofins Panlabs. It is filed as binding. The settings on record: mouse.
Data set [6] has as its target Serotonin (5-Hydroxytryptamine) 5-HT3 (Homo sapiens, UniProt P46098). The experiment in a line: Lead Profiling Screen, Eurofins Panlabs. It is filed as binding. The settings on record: Serotonin 5-HT3, hum, read-out: % inh at 10 μM.
Another data set concerns the target Muscarinic M2 (Homo sapiens, UniProt P08172). Briefly: Lead Profiling Screen, Eurofins Panlabs. It is filed as binding. The settings on record: Muscarinic M2, hum, read-out: % inh at 10 μM.

Muscarinic M2, sequence (P08172 whole entry): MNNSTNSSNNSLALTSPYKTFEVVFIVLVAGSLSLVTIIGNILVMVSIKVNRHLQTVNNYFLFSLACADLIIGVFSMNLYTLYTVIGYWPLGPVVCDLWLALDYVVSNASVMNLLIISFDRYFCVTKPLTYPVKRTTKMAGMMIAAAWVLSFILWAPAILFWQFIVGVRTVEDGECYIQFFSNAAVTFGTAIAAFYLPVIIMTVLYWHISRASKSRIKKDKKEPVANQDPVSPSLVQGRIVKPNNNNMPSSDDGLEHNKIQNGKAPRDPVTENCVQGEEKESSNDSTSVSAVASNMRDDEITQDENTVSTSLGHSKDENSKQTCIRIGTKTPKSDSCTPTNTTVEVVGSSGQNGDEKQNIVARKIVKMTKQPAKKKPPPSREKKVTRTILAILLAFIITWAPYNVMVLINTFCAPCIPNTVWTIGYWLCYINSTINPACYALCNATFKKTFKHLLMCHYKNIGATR
Serotonin (5-Hydroxytryptamine) 5-HT3, sequence (P46098 24-478): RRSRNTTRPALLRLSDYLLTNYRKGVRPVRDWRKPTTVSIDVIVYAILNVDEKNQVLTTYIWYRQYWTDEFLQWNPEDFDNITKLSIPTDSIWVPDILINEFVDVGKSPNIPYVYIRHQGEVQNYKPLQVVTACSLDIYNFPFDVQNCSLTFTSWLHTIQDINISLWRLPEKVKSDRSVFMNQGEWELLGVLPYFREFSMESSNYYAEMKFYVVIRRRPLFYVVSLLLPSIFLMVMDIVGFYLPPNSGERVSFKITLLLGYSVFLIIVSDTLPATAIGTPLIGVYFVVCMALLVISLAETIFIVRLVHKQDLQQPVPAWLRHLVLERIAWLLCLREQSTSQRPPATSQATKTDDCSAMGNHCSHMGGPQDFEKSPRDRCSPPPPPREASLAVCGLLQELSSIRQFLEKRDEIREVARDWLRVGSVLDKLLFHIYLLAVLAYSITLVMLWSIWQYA
hERG potassium channel, sequence (Q12809 whole entry): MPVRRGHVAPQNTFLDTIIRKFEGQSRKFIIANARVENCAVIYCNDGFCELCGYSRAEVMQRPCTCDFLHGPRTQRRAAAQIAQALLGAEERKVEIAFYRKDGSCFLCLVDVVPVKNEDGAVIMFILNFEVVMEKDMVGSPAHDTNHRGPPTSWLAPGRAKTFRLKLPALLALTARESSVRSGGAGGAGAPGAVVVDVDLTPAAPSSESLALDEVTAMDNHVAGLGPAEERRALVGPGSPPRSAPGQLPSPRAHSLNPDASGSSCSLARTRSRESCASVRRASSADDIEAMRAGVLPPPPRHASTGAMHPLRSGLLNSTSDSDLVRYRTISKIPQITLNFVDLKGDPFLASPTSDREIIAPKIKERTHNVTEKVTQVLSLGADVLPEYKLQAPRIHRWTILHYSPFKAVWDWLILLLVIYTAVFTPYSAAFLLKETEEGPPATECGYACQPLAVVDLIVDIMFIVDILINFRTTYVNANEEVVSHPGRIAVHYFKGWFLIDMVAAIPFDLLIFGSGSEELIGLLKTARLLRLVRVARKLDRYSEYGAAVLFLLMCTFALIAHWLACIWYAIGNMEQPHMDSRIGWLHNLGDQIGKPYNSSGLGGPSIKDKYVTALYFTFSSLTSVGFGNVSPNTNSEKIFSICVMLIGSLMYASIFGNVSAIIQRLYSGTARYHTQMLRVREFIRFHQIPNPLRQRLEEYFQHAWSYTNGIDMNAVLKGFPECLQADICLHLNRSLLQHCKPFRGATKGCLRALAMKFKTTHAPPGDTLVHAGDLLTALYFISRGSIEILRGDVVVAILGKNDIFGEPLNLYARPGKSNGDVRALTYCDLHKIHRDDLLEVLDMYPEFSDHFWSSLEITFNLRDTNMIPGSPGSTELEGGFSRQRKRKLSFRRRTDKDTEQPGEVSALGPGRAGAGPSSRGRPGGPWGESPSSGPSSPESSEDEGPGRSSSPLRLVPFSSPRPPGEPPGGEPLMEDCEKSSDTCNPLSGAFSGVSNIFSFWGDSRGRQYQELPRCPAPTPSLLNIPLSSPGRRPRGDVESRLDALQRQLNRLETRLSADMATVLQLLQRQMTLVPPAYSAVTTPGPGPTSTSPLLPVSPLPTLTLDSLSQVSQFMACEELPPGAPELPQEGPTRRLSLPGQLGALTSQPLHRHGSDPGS
Opiate κ (OP2, KOP), sequence (P41145 whole entry): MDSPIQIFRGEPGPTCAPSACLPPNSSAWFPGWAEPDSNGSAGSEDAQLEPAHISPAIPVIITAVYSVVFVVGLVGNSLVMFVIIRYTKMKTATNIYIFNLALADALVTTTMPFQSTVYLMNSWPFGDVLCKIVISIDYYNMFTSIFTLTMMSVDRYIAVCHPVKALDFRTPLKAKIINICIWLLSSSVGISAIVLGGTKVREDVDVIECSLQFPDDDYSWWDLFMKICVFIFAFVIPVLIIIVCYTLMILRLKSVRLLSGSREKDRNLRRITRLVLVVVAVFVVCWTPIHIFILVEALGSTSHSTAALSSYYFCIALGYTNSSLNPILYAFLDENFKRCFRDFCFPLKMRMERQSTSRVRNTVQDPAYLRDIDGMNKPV
Adenosine A2A, sequence (P29274 whole entry): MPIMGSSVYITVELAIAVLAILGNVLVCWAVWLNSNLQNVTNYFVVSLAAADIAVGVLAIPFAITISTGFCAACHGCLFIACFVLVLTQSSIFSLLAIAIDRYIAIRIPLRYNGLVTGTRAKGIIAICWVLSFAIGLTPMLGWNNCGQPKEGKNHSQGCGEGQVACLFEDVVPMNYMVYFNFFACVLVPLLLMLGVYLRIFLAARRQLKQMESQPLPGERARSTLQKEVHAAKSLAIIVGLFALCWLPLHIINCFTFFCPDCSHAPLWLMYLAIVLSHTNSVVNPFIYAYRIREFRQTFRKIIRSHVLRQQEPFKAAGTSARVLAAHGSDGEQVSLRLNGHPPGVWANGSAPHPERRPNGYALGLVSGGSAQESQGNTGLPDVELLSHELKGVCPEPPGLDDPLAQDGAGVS
Tachykinin NK1, sequence (P25103 whole entry): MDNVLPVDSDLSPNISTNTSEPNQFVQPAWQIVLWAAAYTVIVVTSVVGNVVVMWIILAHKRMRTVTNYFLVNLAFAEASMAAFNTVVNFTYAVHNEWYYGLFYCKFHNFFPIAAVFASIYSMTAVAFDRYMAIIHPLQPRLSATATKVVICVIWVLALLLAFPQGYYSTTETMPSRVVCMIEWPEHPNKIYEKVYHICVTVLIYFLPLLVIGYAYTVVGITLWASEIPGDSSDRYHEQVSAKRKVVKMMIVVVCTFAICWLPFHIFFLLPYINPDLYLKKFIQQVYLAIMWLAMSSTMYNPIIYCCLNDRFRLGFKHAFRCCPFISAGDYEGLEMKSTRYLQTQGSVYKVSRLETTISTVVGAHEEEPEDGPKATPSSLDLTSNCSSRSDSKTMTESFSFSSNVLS
Glutamate, NMDA, Glycine, sequence (P35439 394-800 limits assumed): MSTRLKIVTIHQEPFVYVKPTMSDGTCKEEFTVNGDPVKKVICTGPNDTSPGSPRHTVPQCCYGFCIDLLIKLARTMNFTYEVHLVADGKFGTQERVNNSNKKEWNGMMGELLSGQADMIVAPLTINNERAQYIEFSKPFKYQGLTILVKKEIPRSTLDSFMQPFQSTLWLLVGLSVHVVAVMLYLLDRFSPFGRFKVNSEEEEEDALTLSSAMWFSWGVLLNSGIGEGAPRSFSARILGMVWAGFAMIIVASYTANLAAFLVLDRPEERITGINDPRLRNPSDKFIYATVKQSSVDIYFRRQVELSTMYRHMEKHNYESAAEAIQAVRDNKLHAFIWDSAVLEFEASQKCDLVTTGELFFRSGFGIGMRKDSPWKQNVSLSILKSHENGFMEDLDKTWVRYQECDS
Leukotriene, Cysteinyl CysLT1, sequence (Q9Y271 whole entry): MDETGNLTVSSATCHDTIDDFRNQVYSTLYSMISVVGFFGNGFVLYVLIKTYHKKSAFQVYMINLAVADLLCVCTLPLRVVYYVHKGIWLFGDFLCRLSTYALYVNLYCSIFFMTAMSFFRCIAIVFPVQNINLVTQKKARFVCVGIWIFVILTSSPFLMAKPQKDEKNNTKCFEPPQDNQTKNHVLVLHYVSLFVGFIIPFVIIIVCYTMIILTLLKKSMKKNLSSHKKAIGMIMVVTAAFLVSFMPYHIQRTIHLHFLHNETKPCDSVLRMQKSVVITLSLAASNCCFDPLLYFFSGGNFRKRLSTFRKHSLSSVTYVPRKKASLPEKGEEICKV
Melatonin MT1, sequence (P48039 whole entry): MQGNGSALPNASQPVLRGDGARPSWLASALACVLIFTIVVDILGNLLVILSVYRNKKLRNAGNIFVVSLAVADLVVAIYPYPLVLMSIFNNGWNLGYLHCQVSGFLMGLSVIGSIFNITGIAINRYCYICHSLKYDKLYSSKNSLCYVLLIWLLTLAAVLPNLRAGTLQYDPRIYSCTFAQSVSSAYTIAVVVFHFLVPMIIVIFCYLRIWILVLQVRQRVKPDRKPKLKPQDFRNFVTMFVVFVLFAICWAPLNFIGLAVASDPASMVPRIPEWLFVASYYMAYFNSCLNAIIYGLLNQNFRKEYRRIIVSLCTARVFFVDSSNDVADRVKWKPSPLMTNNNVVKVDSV
Neuropeptide Y Y1, sequence (P25929 whole entry): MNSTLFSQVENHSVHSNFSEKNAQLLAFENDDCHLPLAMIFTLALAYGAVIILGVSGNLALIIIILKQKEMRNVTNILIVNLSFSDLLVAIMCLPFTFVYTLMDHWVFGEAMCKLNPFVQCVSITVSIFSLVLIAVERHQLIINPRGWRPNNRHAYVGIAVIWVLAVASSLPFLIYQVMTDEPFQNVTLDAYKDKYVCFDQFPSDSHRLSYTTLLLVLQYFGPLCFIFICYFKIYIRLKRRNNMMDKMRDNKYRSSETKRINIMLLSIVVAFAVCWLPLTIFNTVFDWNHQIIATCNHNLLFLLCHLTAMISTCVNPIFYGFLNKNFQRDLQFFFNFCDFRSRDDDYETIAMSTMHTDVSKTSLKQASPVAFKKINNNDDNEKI

For the compound `Cc1cc(Oc2cnn(C)c2)cc(C(=O)Nc2ccc(F)cn2)n1` [22iA], the intrinsic clearance (CLint scaled) (commonly the capacity of the preparation to metabolise the compound, expressed as a volume cleared per time) at 40 min, 1 µM in data set [1] (pH 7.4, human liver microsomes) was found to be 9 mL/min/kg. Besides, in data set [1] (predicted hepatic clearance based on microsomal CLint), the “CLhep, human” value was 6 mL/min/kg. For the same compound, in data set [2], the turnover in hepatocytes result is “high turnover”. Further, the inhibition at 10 µM was 2% at Opiate κ (OP2, KOP); -2% on Neuropeptide Y Y1; 7% in data set [3]; 15% at Tachykinin NK1; 15% at Melatonin MT1; 14% at hERG potassium channel. Moreover, the inhibition at 10 µM is -13% at Muscarinic M1; 3% at Opiate δ1 (OP1, DOP); -18% at Glutamate, NMDA, Glycine; 9% at Adenosine A2A; -6% in data set [6]; -2% at Muscarinic M2. In addition, the “% inh at 10 μM” value in [4] is listed as 22%; with Glutamate, Kainate, -7%; in data set [5] it was 0%; in the data set with Phorbol Ester, -1%.
